Laboratory results published in patent US8016810B2, “Transdermal delivery system for cosmetic agents” (TransPharma Medical Ltd., priority 2003, dated 2011).

Legend:
[1] = relative to hydroquinone; cited from earlier work
[2] = over a 4 to 6 month period, systemic; cited from earlier work
[3] = In vitro skin permeation study, flow-through Franz diffusion cell, ViaDerm (micro-channel) treated vs intact skin; type: in vitro ADME, porcine; details: for Total permeated amount: after 24 hr
Method: The density of the microelectrode array was 100 microelectrodes/cm^2. […] The permeability of the cosmetic agents through porcine skin was measured in vitro with a flow-through Franz diffusion cell system (Laboratory Glass Apparatus, Berkeley, Calif.). […] Skin micro-channeling was performed in cells defined as VD (ViaDerm) application group, and then TEWL was measured again to control the operation. The skin pieces were placed on the receiver chambers with the stratum corneum facing upwards, and the donor chambers were clamped in place. […] Samples from the acceptor solutions were collected into tubes (using a fraction collector, Retriever IV, ISCO, Lincoln, Nebr., USA) at predetermined times for up to 24 hr period. The samples were kept at 4° C. until analyzed by HPLC. Samples from the acceptor solutions (10-50 μl) were injected into HPLC system (Waters) equipped with a pre-packed LiChrospher C18 column (150×3.9 mm, 5 μm; Waters), and a UV detector. […] The Salicylic acid samples were separated using an isocratic mobile phase containing 5% methanol 25% Acetonitrile and 0.01 mol/l KH2PO4/H3PO4 buffer pH 2.3 in H2O, at a flow rate 1 ml/min. The detection of salicylic acid was performed at a wavelength of 237 nm. […] The detection of hydroquinone was performed at a wavelength of 280 nm. […] The permeation efficacy is defined as the % of penetrated agent out of total amount of the agent applied on the skin.

[4] = ViaDerm treated skin, after 24 h, 0.25 ml solution in donor chamber
[5] = ViaDerm treated skin, 0.25 ml solution in donor chamber
[6] = after 3 h, 0.25 ml solution in donor chamber
[7] = after 24 h, 0.25 ml solution in donor chamber
[8] = control untreated skin, 0.25 ml solution in donor chamber
[9] = untreated skin, after 24 h, 0.25 ml solution in donor chamber

Question: With `O=C1O[C@H]([C@@H](O)CO)C(O)=C1O` [ascorbic acid] as the compound, how does the “Quantity required to achieve a similar skin whitening effect, compared to the quantity of hydroquinone used” value [1] read?
Answer: The value was 17 times.

Question: Which “Acne cleared by treatment” value [2] does the source give for `CC1=C(/C=C/C(C)=C/C=C/C(C)=C\C(=O)O)C(C)(C)CCC1` [isotretinoin] here?
Answer: Its value is no more than 85%.

Question: For `OC[C@H]1O[C@@H](Oc2ccc(O)cc2)[C@H](O)[C@@H](O)[C@@H]1O` [arbutin], which “Quantity required to achieve a similar skin whitening effect, compared to the quantity of hydroquinone used” value [1] is on record?
Answer: Its value is “over 100 times”.

Question: With `O=C(O)c1ccccc1O` [salicylic acid] as the compound, how does the Permeation efficacy [3, 4] read?
Answer: Its Permeation efficacy is 62%.

Question: And the Total permeated amount [3, 5]?
Answer: Its Total permeated amount is 820 μg/cm^2.

Question: And the “Difference in permeated amount, ViaDerm treated compared to untreated skin” value (from here on “Difference in permeated amount”) [3, 6]?
Answer: Its value is 17 fold.

Question: And the “Difference in permeated amount” value [3, 7]?
Answer: Its value is 10 fold.

Question: And the Total permeated amount [3, 8]?
Answer: Its Total permeated amount is 84 μg/cm^2.

Question: And the Permeation efficacy [3, 9]?
Answer: The Permeation efficacy was 4%.

Question: With `Cn1c(=O)c2c(ncn2C)n(C)c1=O` [caffeine] as the compound, how does the “Caffeine flux (plateau)” value ([3]; ViaDerm pretreated skin, after 6 hours, 0.25 ml of 1% w/v aqueous solution) read?
Answer: The value was 18.5 ± 2.2 µg/mL.

Question: What about the Permeation efficacy ([3]; ViaDerm pretreated skin, after 16 hours, 0.25 ml of 1% w/v solution) of the same compound?
Answer: The Permeation efficacy was 37.1±4.8%.

Question: What about the “Permeation efficacy, ViaDerm in comparison to untreated skin” value ([3]; after 16 hours, 0.25 ml of 1% w/v solution) of the same compound?
Answer: The value was 10 fold.

Question: What about the Caffeine flux ([3]; control untreated skin, after 6 hours, 0.25 ml of 1% w/v aqueous solution) of the same compound?
Answer: Its Caffeine flux is 0.4 ± 0.3 µg/mL.

Question: And the “Cumulative permeability through ViaDerm treated skin compared to intact skin” value ([3]; result in words (FIGS. 1, 2, 4))?
Answer: Its value is “enhanced”.

Question: What about the Permeation efficacy ([3]; untreated skin, after 16 hours, 0.25 ml of 1% w/v solution) of the same compound?
Answer: Its Permeation efficacy is 3.6±2.6%.

Question: Which Permeation efficacy [3, 4] does the source give for `Oc1ccc(O)cc1` [hydroquinone] here?
Answer: The Permeation efficacy was 27%.

Question: And the Total permeated amount [3, 5]?
Answer: Its Total permeated amount is 1824 μg/cm^2.

Question: What about the “Difference in permeated amount” value [3, 6] of the same compound?
Answer: The value was 39 fold.

Question: What about the “Difference in permeated amount” value [3, 7] of the same compound?
Answer: The value was 29 fold.

Question: What about the Total permeated amount [3, 8] of the same compound?
Answer: Its Total permeated amount is 62 μg/cm^2.

Question: And the Permeation efficacy [3, 9]?
Answer: The Permeation efficacy was 1%.
